# In patent US20250368633A1, “AZEPINE FUSED RING COMPOUND AS RIPK1 INHIBITOR AND USE THEREOF” (ARTIVILA BIOPHARMA, priority 2022, published 2025):
# Assays:
# [1] = target: T1, RIPK1 kinase (Homo sapiens, UniProt Q13546); test: In vitro RIPK1 kinase activity assay (ADP-Glo), inhibition by compounds at 1 μM; format: biochemical; details: compound 1 μM; ATP 10 μM; MBP substrate 100 μg/mL; read-out: RIPK1 kinase activity inhibition rate range
# T1 construct: purchased Promega VA7593
# T1 sequence (Q13546 1-671): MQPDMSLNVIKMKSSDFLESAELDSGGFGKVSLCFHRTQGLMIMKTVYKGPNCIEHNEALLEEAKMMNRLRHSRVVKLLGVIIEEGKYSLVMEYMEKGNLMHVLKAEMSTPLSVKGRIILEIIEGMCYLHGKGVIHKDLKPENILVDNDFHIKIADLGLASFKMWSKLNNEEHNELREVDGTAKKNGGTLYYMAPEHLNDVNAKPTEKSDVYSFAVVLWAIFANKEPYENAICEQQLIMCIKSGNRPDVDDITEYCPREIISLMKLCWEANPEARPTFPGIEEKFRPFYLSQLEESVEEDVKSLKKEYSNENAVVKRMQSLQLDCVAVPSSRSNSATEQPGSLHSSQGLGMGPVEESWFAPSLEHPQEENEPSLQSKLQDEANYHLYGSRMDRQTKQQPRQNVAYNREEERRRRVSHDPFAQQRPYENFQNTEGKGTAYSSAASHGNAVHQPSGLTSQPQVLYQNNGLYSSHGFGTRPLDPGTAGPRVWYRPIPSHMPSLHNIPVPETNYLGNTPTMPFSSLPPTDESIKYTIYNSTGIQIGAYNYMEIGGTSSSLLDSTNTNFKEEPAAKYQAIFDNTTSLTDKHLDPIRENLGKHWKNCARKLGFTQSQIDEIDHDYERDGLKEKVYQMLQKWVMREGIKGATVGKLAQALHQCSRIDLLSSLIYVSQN
# How it was run: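 Read by ADP-Glo chemiluminescence as percent inhibition: RIPK1 kinase, 15-min room-temperature compound preincubation, then 1-h reaction with MBP (100 μg/mL final) and ATP (10 μM final). Enzyme level was set by titration.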
# [2] = system: U937 cells; test: Inhibition rate of compound (1 μM) on necroptosis of U937 cells (TSZ-induced, CellTiter-Glo); format: cell-based; details: TSZ (hTNF-α, SM-164, Z-VAD-FMK) 20 hours
# How it was run: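 Percent inhibition comes from ATP luminescence (CellTiter-Glo), referenced to wells without TSZ and wells with TSZ alone. The compound was added to U937 cells 15 min ahead of a TNF-α/SM-164/Z-VAD-FMK mix, followed by 20 h culture at 37° C, 5% CO2.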
# [3] = system: U937 cells; test: EC50 of necroptosis inhibition in U937 cells (TSZ-induced, CellTiter-Glo); format: cell-based; details: Homo sapiens, U-937; TSZ (hTNF-α, SM-164, Z-VAD-FMK) 20 hours; 10 concentration points; read-out: EC50 intervals of necroptosis inhibition in U937 cells
# How it was run: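 Luminescent ATP readout (CellTiter-Glo) after 20 h gave viability of TSZ-challenged U937 cells; compounds were added 15 min ahead of TNF-α/SM-164/Z-VAD-FMK. EC50 derived by variable-slope nonlinear regression of inhibition relative to no-TSZ and TSZ-alone controls.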
SMILES,inhibition at 1 µM [1] [%],Inhibition rate range of compounds (1 μM) on U937 cell necroptosis [2],EC50 [3] [nM]
"CN1C(=O)[C@@H](NC(=O)C(=O)NCCc2cccc(F)c2)COc2ccccc21 [Example 100, (S)—N^1-(3-fluorophenethyl)-N^2-(5-methyl-4-oxo-2,3,4,5-tetrahydrobenzo[b][1,4]oxazepin-3-yl)oxamalide]",≥ 75,B (B: 50-89%),100 to 500
"CN1C(=O)[C@@H](NC(=O)C(=O)NCc2cc(F)cc(F)c2)COc2ccccc21 [Example 102, (S)—N^1-(3,5-difluorobenzyl)-N^2-(5-methyl-4-oxo-2,3,4,5-tetrahydrobenzo[b][1,4]oxazepin-3-yl)oxalamide]",25 to 49,B (B: 50-89%),500 to 2000
"CN1C(=O)[C@@H](NC(=O)C(=O)NCc2ccccc2)COc2ccc(C#CCN3CCC(O)CC3)cc21 [Example 105, (S)—N^1-benzyl-N^2-(7-(3-(4-hydroxypiperidin-1-yl)prop-1-yn-1-yl)-5-methyl-4-oxo-2,3,4,5-tetrahydrobenzo[b][1,4]oxazepin-3-yl)oxalamide]",≥ 75,A (A: ≥90%),< 100
"Cc1ccccc1CNC(=O)C(=O)N[C@H]1COc2ccc(C#CCN3CCNC(=O)C3)cc2N(C)C1=O [Example 108, (S)—N^1-(5-methyl-4-oxo-7-(3-(3-oxopiperazin-1-yl)prop-1-yn-1-yl)-2,3,4,5-tetrahydrobenzo[b][1, 4]oxazepin-3-yl)-N^2-(2-methylbenzyl)oxalamide]",≥ 75,A (A: ≥90%),< 100
"CN1C(=O)[C@@H](NC(=O)C(=O)NCCc2cccc(F)c2)COc2ccc(C#CC3CCCNC3)cc21 (stereo partly drawn) [Example 116, N^1-(3-fluorophenethyl)-N^2-((3S)-5-methyl-4-oxo-7-(piperidin-3-ylethynyl)-2,3,4,5-tetrahydrobenzo[b][1,4]oxazepin-3-yl)oxalamide]",50 to 74,A (A: ≥90%),100 to 500
"CN1C(=O)[C@@H](NC(=O)C(=O)NCCc2cccc(F)c2)COc2ccc(C#CCN3CCC(=O)C3)cc21 [Example 119, (S)—N^1-(3-fluorophenethyl)-N^2-(5-methyl-4-oxo-7-(3-(3-oxopyrrolidin-1-yl)prop-1-yn-1-yl)-2,3,4,5-tetrahydrobenzo[b][1,4]oxazepin-3-yl)oxalamide]",25 to 49,A (A: ≥90%),< 100
"CN1C(=O)[C@@H](NC(=O)C(=O)NCCc2cccc(F)c2)COc2ccc(C#CCN3CCN(CCO)CC3)cc21 [Example 121, (S)—N^1-(3-fluorophenethyl)-N^2-(7-(3-(4-(2-hydroxyethyl)piperazin-1-yl)prop-1-yn-1-yl)-5-methyl-4-oxo-2,3,4,5-tetrahydrobenzo[b][1,4]oxazepin-3-yl)oxalamide]",≥ 75,B (B: 50-89%),< 100
"C[C@H](NC(=O)C(=O)N[C@H]1COc2ccc(C#CCCO)cc2N(C)C1=O)c1ccccc1 [Example 124, N^1-((S)-7-(4-hydroxybut-1-yn-1-yl)-5-methyl-4-oxo-2,3,4,5-tetrahydrobenzo[b][1,4]oxazepin-3-yl)-N^2-((S)-1-phenylethyl)oxalamide]",50 to 74,A (A: ≥90%),100 to 500
"C[C@@H](NC(=O)C(=O)N[C@H]1COc2ccc(C#CC3COC3)cc2N(C)C1=O)c1ccccc1 [Example 131, (S)—N^1-(5-methyl-7-(oxetan-3-ylethynyl)-4-oxo-2,3,4,5-tetrahydrobenzo[b][1,4]oxazepin-3-yl)-N^2-((R)-1-phenylethyl)oxalamide]",≥ 75,A (A: ≥90%),< 100
"C[C@@H](NC(=O)C(=O)N[C@H]1COc2ccc(C#CCn3ccnc3)cc2N(C)C1=O)c1ccccc1 [Example 134, N^1-((S)-7-(3-(1H-imidazol-1-yl)prop-1-yn-1-yl)-5-methyl-4-oxo-2,3,4,5-tetrahydrobenzo[b][1,4]oxazepin-3-yl)-N^2-((R)-1-phenylethyl)oxalamide]",50 to 74,A (A: ≥90%),< 100
"C[C@@H](NC(=O)C(=O)N[C@H]1COc2ccc(C#CC3CCNCC3)cc2N(C)C1=O)c1ccccc1 [Example 135, N^1-((S)-5-methyl-4-oxo-7-(piperidin-4-ylethynyl)-2,3,4,5-tetrahydrobenzo[b][1,4]oxazepin-3-yl)-N^2-((R)-1-phenylethyl)oxalamide]",25 to 49,A (A: ≥90%),< 100
"C[C@@H](NC(=O)C(=O)N[C@H]1COc2ccc(C#CC3CCN(C)CC3)cc2N(C)C1=O)c1ccccc1 [Example 136, N^1-((S)-5-methyl-7-((1-methylpiperidin-4-yl)ethynyl)-4-oxo-2,3,4,5-tetrahydrobenzo[b][1,4]oxazepin-3-yl)-N^2-((R)-1-phenylethyl)oxalamide]",25 to 49,A (A: ≥90%),< 100
"C[C@@H](NC(=O)C(=O)N[C@H]1COc2ccc(C#CCN3CCNCC3)cc2N(C)C1=O)c1ccccc1 [Example 142, N^1-((S)-5-methyl-4-oxo-7-(3-(piperazin-1-yl)prop-1-yn-1-yl)-2,3,4,5-tetrahydrobenzo[b][1,4]oxazepin-3-yl)-N^2-((R)-1-phenylethyl)oxalamide]",≥ 75,A (A: ≥90%),< 100
"CC(=O)N1CCN(CC#Cc2ccc3c(c2)N(C)C(=O)[C@@H](NC(=O)C(=O)N[C@H](C)c2ccccc2)CO3)CC1 [Example 143, N^1-((S)-7-(3-(4-acetylpiperazin-1-yl)prop-1-yn-1-yl)-5-methyl-4-oxo-2,3,4,5-tetrahydrobenzo[b][1,4]oxazepin-3-yl)-N^2-((R)-1-phenylethyl)oxalamide]",≥ 75,A (A: ≥90%),< 100
"C[C@@H](NC(=O)C(=O)N[C@H]1COc2ccc(C#CC3CN(C)C3)cc2N(C)C1=O)c1ccccc1 [Example 147, N^1-((S)-5-methyl-7-((1-methylazetidin-3-yl)ethynyl)-4-oxo-2,3,4,5-tetrahydrobenzo[b][1,4]oxazepin-3-yl)-N^2-((R)-1-phenylethyl)oxalamide]",≥ 75,A (A: ≥90%),< 100
"C=CC(=O)N1CC(C#Cc2ccc3c(c2)N(C)C(=O)[C@@H](NC(=O)C(=O)N[C@H](C)c2ccccc2)CO3)C1 [Example 149, N^1-((S)-7-((1-acryloylazetidin-3-yl)ethynyl)-5-methyl-4-oxo-2,3,4,5-tetrahydrobenzo[b][1,4]oxazepin-3-yl)-N^2-((R)-1-phenylethyl)oxalamide]",≥ 75,A (A: ≥90%),< 100
"C[C@@H](NC(=O)C(=O)N[C@H]1COc2ccc(C#CC3CN(N=O)C3)cc2N(C)C1=O)c1ccccc1 [Example 151, N^1-((S)-5-methyl-7-((1-nitrosoazetidin-3-yl)ethynyl)-4-oxo-2,3,4,5-tetrahydrobenzo[b][1,4]oxazepin-3-yl)-N^2-((R)-1-phenylethyl)oxalamide]",25 to 49,A (A: ≥90%),< 100
"C[C@@H](Cc1ccccc1)NC(=O)C(=O)N[C@H]1COc2ccc(C#CCCO)cc2N(C)C1=O [Example 152, N^1-((S)-7-(4-hydroxybut-1-yn-1-yl)-5-methyl-4-oxo-2,3,4,5-tetrahydrobenzo[b][1,4]oxazepin-3-yl)-N^2-((S)-1-phenylpropan-2-yl)oxalamide]",50 to 74,A (A: ≥90%),100 to 500
